This experiment deals with T1, GSNOR (GSNO Reductase) (Homo sapiens, UniProt P11766).
T1 construct: made in house; host or cells: E. coli (arabinose-induced)
T1 sequence (P11766 whole entry): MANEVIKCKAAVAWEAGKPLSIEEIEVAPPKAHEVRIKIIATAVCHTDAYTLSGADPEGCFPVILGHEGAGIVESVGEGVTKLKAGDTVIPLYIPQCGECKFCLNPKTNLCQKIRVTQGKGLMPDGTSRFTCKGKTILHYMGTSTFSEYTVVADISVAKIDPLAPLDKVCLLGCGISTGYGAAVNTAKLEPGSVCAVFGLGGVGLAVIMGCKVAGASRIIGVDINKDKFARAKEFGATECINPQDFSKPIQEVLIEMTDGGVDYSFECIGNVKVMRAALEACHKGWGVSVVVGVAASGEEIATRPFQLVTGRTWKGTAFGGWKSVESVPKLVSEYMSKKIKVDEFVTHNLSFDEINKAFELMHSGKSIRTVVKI
As to the kind of experiment: GSNOR assay (inhibition of GSNOR activity, change in 340 nm absorbance). To be noted: 100 mM NaPO4 pH 7.4, 0.240 mM GSNO, 0.300 mM NADH, 0.5 μg/mL GSNO Reductase, 1% DMSO, 25° C.; values given as 'about' bounds; read-out: IC50 (GSNOR inhibitor activity). The class given is biochemical. How it is done: Various compounds were tested in vitro for their ability to inhibit GSNOR activity. […] GSNOR expression and purification is described in Biochemistry 2000, 39, 10720-10729.
GSNOR fermentation: Pre-cultures were grown from stabs of a GSNOR glycerol stock in 2XYT media containing 100 ug/ml ampicillin after an overnight incubation at 37° C. Cells were then added to fresh 2XYT (4L) containing ampicillin and grown to an OD (A600) of 0.6-0.9 at 37° C. before induction. GSNOR expression was induced with 0.1% arabinose in an overnight incubation at 20° C.
GSNOR Purification: E. coli cell paste was lysed by nitrogen cavitation and the clarified lysate purified by Ni affinity chromatography on an AKTA FPLC (Amersham Pharmacia). The column was eluted in 20 mM Tris pH 8.0/250 mM NaCl with a 0-500 mM imidazole gradient. […] GSNOR was recovered in the flowthrough fraction and for crystallography is further purified by Q-Sepharose and Heparin flowthrough chromatography in 20 mM Tris pH 8.0, 1 mM DTT, 10 uM ZnSO4.
GSNOR assay: GSNO and Enzyme/NADH Solutions are made up fresh each day. The Solutions are filtered and allowed to warm to room temperature. GSNO Solution: 100 mM NaPO4 (pH 7.4), 0.480 mM GSNO. 396 μL of GSNO Solution is added to a cuvette followed by 8 μL of test compound in DMSO (or DMSO only for full reaction control) and mixed with the pipette tip. Compounds to be tested are made up at a stock concentration of 10 mM in 100% DMSO. 2 fold serial dilutions are done in 100% DMSO. 8 μL of each dilution are added to an assay so that the final concentration of DMSO in the assay is 1%. The concentrations of compounds tested range from 100 to 0.003 μM. Enzyme/NADH Solution: 100 mM NaPO4 (pH 7.4), 0.600 mM NADH, 1.0 μg/mL GSNO Reductase. 396 μL of the Enzyme/NADH Solution is added to the cuvette to start the reaction. The cuvette is placed in the Cary 3E UV/Visible Spectrophotometer and the change in 340 nm absorbance/min at 25° C. is recorded for 3 minutes. The assays are done in triplicate for each compound concentration. IC50's for each compound are calculated using the standard curve analysis in the Enzyme Kinetics Module of SigmaPlot.
Final assay conditions: 100 mM NaPO4, pH 7.4, 0.240 mM GSNO, 0.300 mM NADH, 0.5 μg/mL GSNO Reductase and 1% DMSO. Final volume: 800 μL/cuvette.
In general, IC50 refers to the concentration that inhibits the measured activity by half. On to `COc1ccc(-c2ccn(CC(F)(F)C(=O)O)c2-c2ccc(C(N)=O)cc2C)cc1` [Example 9, 3-(2-(4-carbamoyl-2-methylphenyl)-3-(4-methoxyphenyl)-1H-pyrrol-1-yl)-2,2-difluoropropanoic acid], for which the IC50 is less than 5 µM.

For the compound `COc1ccc(-c2ccn(-c3ccc(C(=O)O)c(Cl)c3)c2-c2ccc(C(N)=O)cc2C)cc1` [Example 20, 4-(2-(4-carbamoyl-2-methylphenyl)-3-(4-methoxyphenyl)-1H-pyrrol-1-yl)-2-chlorobenzoic acid], the IC50 was less than 5 µM.

With `COc1ccc(-c2ccn(-c3ccc(O)c([N+](=O)[O-])c3)c2-c2ccc(C(N)=O)cc2C)cc1` [Example 17, 4-(1-(4-hydroxy-3-nitrophenyl)-3-(4-methoxyphenyl)-1H-pyrrol-2-yl)-3-methylbenzamide], the IC50 was less than 1 µM.

As to `COc1ccc(-c2ccn(-c3ccc(C(=O)O)c(O)c3)c2-c2ccc(C(N)=O)cc2C)cc1` [Example 15, 4-(2-(4-carbamoyl-2-methylphenyl)-3-(4-methoxyphenyl)-1H-pyrrol-1-yl)-2-hydroxybenzoic acid], the IC50 was less than 1 µM.

Take `COc1cc(Cl)ccc1-n1ccc(CCC(=O)O)c1-c1ccc(C(N)=O)cc1C` [Example 14, 3-(2-(4-carbamoyl-2-methylphenyl)-1-(4-chloro-2-methoxyphenyl)-1H-pyrrol-3-yl)propanoic acid]: the 50% inhibitory concentration (IC50) is less than 1 µM.

In the case of `Cc1cc(C(N)=O)ccc1-c1c(-c2ccc(-n3ccnc3C)cc2)ccn1-c1cc(F)c(O)c(F)c1` [Example 30, 4-(1-(3,5-difluoro-4-hydroxyphenyl)-3-(4-(2-methyl-1H-imidazol-1-yl)phenyl)-1H-pyrrol-2-yl)-3-methylbenzamide], the IC50 was less than 1 µM.

Turning to `COc1ccc(-c2ccn(CC(C)C(=O)O)c2-c2ccc(C(N)=O)cc2C)cc1` (stereo not drawn) [Example 3, 3-(2-(4-carbamoyl-2-methylphenyl)-3-(4-methoxyphenyl)-1H-pyrrol-1-yl)-2-methylpropanoic acid], the IC50 was less than 5 µM.

Take `Cc1cc(C(N)=O)ccc1-c1c(-c2ccc(-n3ccnc3C)cc2)ccn1-c1ccc(O)c(F)c1` [Example 29, 4-(1-(3-fluoro-4-hydroxyphenyl)-3-(4-(2-methyl-1H-imidazol-1-yl)phenyl)-1H-pyrrol-2-yl)-3-methylbenzamide]: the IC50 is less than 1 µM.

On to `COc1ccc(-n2ccc(CCC(=O)O)c2-c2ccc(C(N)=O)cc2C)cc1` [Example 6, 3-(2-(4-carbamoyl-2-methylphenyl)-1-(4-methoxyphenyl)-1H-pyrrol-3-yl)propanoic acid], for which the IC50 is less than 1 µM.

Take `Cc1cc(C(N)=O)ccc1-c1c(CCC(=O)O)ccn1-c1ccc(-n2ccnc2)cc1` [Example 13, 3-(1-(4-(1H-imidazol-1-yl)phenyl)-2-(4-carbamoyl-2-methylphenyl)-1H-pyrrol-3-yl)propanoic acid]: the IC50 was less than 1 µM.

As for `COc1ccc(-c2ccn(-c3ccc(C(=O)O)c(F)c3)c2-c2ccc(C(N)=O)cc2C)cc1` [Example 16, 4-(2-(4-carbamoyl-2-methylphenyl)-3-(4-methoxyphenyl)-1H-pyrrol-1-yl)-2-fluorobenzoic acid], the IC50 was less than 5 µM.

Turning to `COc1ccc(-c2ccn(-c3ccc(C(=O)O)cc3)c2-c2ccc(C(N)=O)cc2C)cc1` [Example 19, 4-(2-(4-carbamoyl-2-methylphenyl)-3-(4-methoxyphenyl)-1H-pyrrol-1-yl)benzoic acid], the IC50 is less than 1 µM.

With `COc1ccc(-c2ccn(CCC(=O)O)c2-c2ccc(C(N)=O)cc2C)cc1` [Example 1, 3-(2-(4-carbamoyl-2-methylphenyl)-3-(4-methoxyphenyl)-1H-pyrrol-1-yl)propanoic acid], the IC50 is less than 1 µM.

In the case of `COc1ccc(-c2ccn(-c3cc(F)c(O)c(F)c3)c2-c2ccc(C(N)=O)cc2C)cc1` [Example 25, 4-(1-(3,5-difluoro-4-hydroxyphenyl)-3-(4-methoxyphenyl)-1H-pyrrol-2-yl)-3-methylbenzamide], the IC50 is less than 1 µM.

Regarding `COc1ccc(-c2ccn(-c3ccc(O)cn3)c2-c2ccc(C(N)=O)cc2C)cc1` [Example 26, 4-(1-(5-hydroxypyridin-2-yl)-3-(4-methoxyphenyl)-1H-pyrrol-2-yl)-3-methylbenzamide], the IC50 is less than 5 µM.

Regarding `Cc1cc(C(N)=O)ccc1-c1c(-c2ccc(-n3ccnc3)cc2)ccn1CCC(=O)O` [Example 5, 3-(3-(4-(1H-imidazol-1-yl)phenyl)-2-(4-carbamoyl-2-methylphenyl)-1H-pyrrol-1-yl)propanoic acid], the IC50 was less than 1 µM.

Regarding `COc1ccc(-c2ccn(-c3ccc(O)c(C(=O)O)c3)c2-c2ccc(C(N)=O)cc2C)cc1` [Example 27, 5-(2-(4-carbamoyl-2-methylphenyl)-3-(4-methoxyphenyl)-1H-pyrrol-1-yl)-2-hydroxybenzoic acid], the IC50 is less than 1 µM.

Consider `COc1ccc(-c2ccn(-c3ccc(O)c(F)c3)c2-c2ccc(C(N)=O)cc2C)cc1` [Example 23, 4-(1-(3-fluoro-4-hydroxyphenyl)-3-(4-methoxyphenyl)-1H-pyrrol-2-yl)-3-methylbenzamide], for which the half-maximal inhibitory concentration (IC50) is less than 1 µM.

The values above are taken from patent US8642628B2, “Pyrrole inhibitors of S-nitrosoglutathione reductase” (N30 Pharmaceuticals, Inc., priority 2008, dated 2014).
